System: HaCaT human keratinocytes
Experiment: Affymetrix GeneChip microarray, transcriptional response to β-carotene and/or UVA
Assay type: cell-based
Conditions: β-carotene 1.5 μM, unirradiated
Description: The cell culture experiments were carried out as described. Briefly, a subclone of passage 65 HaCaT keratinocytes, selected for differentiation capacity, was used at passages 16 to 23 after subcloning. 2×10^5 cells were seeded per 60 millimeter dish. Starting the following day, the cells were pretreated for 2 days with β-carotene at 1.5 μM, a typical concentration in human plasma after moderate dietary supplementation)
β-carotene-containing medium was prepared as follows. Fresh all-E-β-carotene (DSM Nutritional Products, Kaiseraugst, Switzerland) stock solution in THF (containing 0.025% BHT; Fluka Chemie A G, Switzerland) was diluted 1:2 with ethanol and added to cell culture medium to a final concentration of 1.5 μM β-carotene. The solvent concentration in the medium was 0.5% for all treatments. β-carotene-containing medium was prepared fresh for the daily medium changes.
On day 3 of the experiment, the cells were irradiated with a Hönle sun lamp Sol 500 (270 kJ/m^2; Dr. Hönle, Germany).
Five independent, factorially designed cell irradiation experiments were analyzed by microarray hybridization. For each experiment, one chip was hybridized per treatment condition. GeneChip® analysis was done as described in [132], which is incorporated by reference, as if recited in full herein. Gene regulation by β-carotene and/or UVA was calculated relative to placebo.
Changes in gene expression were included in further analysis only if the change factor was […], and if unpaired t-tests yielded p values≦0.05. Upregulations by a […] are labeled bold, downregulations by a change factor of […] are labeled bold italics. (Table 1) To identify the pathways affected by the treatments functional information on the genes was retrieved from public literature databases.

## CC1=C(/C=C/C(C)=C/C=C/C(C)=C/C=C/C=C(C)/C=C/C=C(C)/C=C/C2=C(C)CCCC2(C)C)C(C)(C)CCC1 [β-carotene, All-E-β-carotene]
  N-RAS (X02751) change factor: −1.2
  NCF2; p67-phox; neutrophil oxidase factor (M32011) change factor: −0.8
  NF-κB subunit (S78771) change factor: −0.1
  NF-κB subunit (X61498) change factor: −0.07
  NFκB; p50 (S76638) change factor: −0.46
  NOL1; p120 nucleolar antigen (X55504) change factor: 0.04
  NOTCH3 (U97669) change factor: −0.8
  NOV (X96584) change factor: −0.7
  NOXA (D90070) change factor: −0.26
  NRF1 (L24123) change factor: −0.27
  NRF2, subunit beta 1 (U13045) change factor: −1.5
  OSR1; oxidative-stress responsive 1 (AB017642) change factor: −0.18
  PAR-1; thrombin receptor (M62424) change factor: −0.5
  PAR-2; proteinase activated receptor-2 (U34038) change factor: −0.27
  PAR-2; proteinase activated receptor-2 (U34038, second entry) change factor: −0.03
  PAR-2; proteinase activated receptor-2 (U67058) change factor: 0.03
  PAR-4; protease-activated receptor 4 (AF055917) change factor: −0.49
  RAIDD; death adaptor molecule (U79115) change factor: −0.22
  RB1 (L49229) change factor: −0.8
  RB2/p130 (X74594) change factor: −0.6
  RETSDR1; retinal short-chain dehydrogenase/reductase (AF061741) change factor: 1.1
  RPA; replication protein A 14 kda subunit (rpa) (L07493) change factor: −0.04
  RXRα (U66306) change factor: −0.2
  RXRα (X52773) change factor: −0.2
  Requiem (AF001433) change factor: 0.5
  SMAD 1 (U59423) change factor: −0.27
  SMAD3 (U68019) change factor: 0.5
  SMAD3 (U68019, second entry) change factor: 0.18
  SMAD4 (U44378) change factor: −0.7
  SMAD5 (U59913) change factor: −0.9
  SMAD6 (AF035528) change factor: −0.47
  SMAD7 (AF010193) change factor: −0.19
  SMRT (U37146) change factor: −0.33
  STK15; BTAK (AF011468) change factor: −0.18
  TDAG51; PQ-rich protein; PHLDA1 (Z50194) change factor: 0.27
  TGFβ; transforming growth factor β (X02812) change factor: 0.9
  TIAR; nucleolysin tiar (M96954) change factor: −0.45
  TIEG, EGRα (AF050110) change factor: −0.8
  TLR3; toll-like receptor 3 (U88879) change factor: 0.6
  TOP2; topoisomerase II (J04088) change factor: −0.22
  TRADD; TNF receptor-1 associated protein (L41690) change factor: 0.23
  TRAIL; TNF-related apoptosis inducing ligand (U37518) change factor: 0.15
  TRIP14; ‘2-5’ oligoadenylate synthetase (AJ225089) change factor: −0.07
  TRIP (U77845) change factor: −0.06
  TSSC3 (AF035444) change factor: −0.44
  TSSC3/IPL (AF001294) change factor: −0.6
  VEGF (AF022375) change factor: −0.5
  VEGF (AF024710) change factor: 0.02
  VEGF (M63978) change factor: −0.48
  VEGFR2; VEGF receptor 2; KDR; FLK-1kdr/flk-1 (AF035121) change factor: 0.6
  WEE1 (X62048) change factor: −0.6
  WNT5A (I20861) change factor: −0.47
  WNT5A (I20861, second entry) change factor: −1.7
  XRCC4 (U40622) change factor: −0.05
  bFGF; basic fibroblast growth factor; FGF2 (M27968) change factor: 0.1
  bilirubin udp-glucuronosyltransferase isozyme 2 (M57951) change factor: −0.25
  bullous pemphigoid autoantigen bp180 (M91669) change factor: −0.45
  c-myc (V00568) change factor: 0.1
  c-myc (V00568, second entry) change factor: 0.1
  c-myc binding protein (mbp-1) (M55914) change factor: 0.5
  caspase 2, ICH-1S (U13022) change factor: −0.31
  caspase 7 (U67319) change factor: −0.09
  ceruloplasmin (ferroxidase) (M13699) change factor: 1
  collagen type IV, α-2 (COL4A2) (X05610) change factor: −0.13
  collagen type IV, α-5 (COL4A5) (M58526) change factor: −0.8
  collagen type IV, α-6 (COL4A6) (D21337) change factor: −0.44
  collagen type VII, α-1 (COL7A1) (L02870) change factor: −0.21
  connexin 31 (AF099730) change factor: 0.17
  connexin 45 (U03493) change factor: −0.06
  coproporphyrinogen oxidase (D16611) change factor: −0.21
  cyclin E2 (AF091433) change factor: −0.25
  cyclin E (M73812) change factor: −0.23
  desmocollin type 4 (D17427) change factor: −1.3
  ferritin heavy chain (L20941) change factor: 0.36
  frizzled-2 (I37882) change factor: −0.03
  frizzled-6 (AB012911) change factor: −0.5
  haemochromatosis protein (hla-h) (U60319) change factor: 0.15
  hsp40; heat shock protein 40 (U40992) change factor: −0.6
  integrin α6 (X53586) change factor: −1.1
  integrin α6b (S66213) change factor: −0.9
  integrin α6b (S66213, second entry) change factor: −1.3
  jagged2 (jag2) (AF029778) change factor: −0.02
  keratin 2e (KRT2E); Keratin 2A (AF019084) change factor: −0.46
  keratin 5 (M21389) change factor: 0.9
  keratin 15 (J00124) change factor: 1
  keratin 16 (M28439) change factor: −2
  keratin 17 (Z19574) change factor: 0.04
  mKI67a mrna (long type) for antigen of monoclonal antibody KI-67 (X65550) change factor: −0.3
  mKI67a mrna (long type) for antigen of monoclonal antibody KI-67 (X65550, second entry) change factor: −0.17
  ornithine decarboxylase (M33764) change factor: −0.2
  ornithine decarboxylase (X16277) change factor: −0.32
  p21; wild-type p53 activated fragment-1 (WAF1) (U03106) change factor: −0.5
  p33; ING1b (AB024401) change factor: −0.47
  p160ROCK (U43195) change factor: −0.28
  protoporphyrinogen oxidase (D38537) change factor: −0.32
  rTS α (X67098) change factor: 0.13
  serpinB1 (M93056) change factor: 0.7
  stimulator of Fe transport (AF020761) change factor: 0.03
  thioredoxin reductase (X91247) change factor: −0.08
  thymidylate synthase (X02308) change factor: −0.12
  transferrin receptor (X01060) change factor: −0.05
  uroporphyrinogen III synthase (J03824) change factor: −0.15
  α topoisomerase truncated-form (L47276) change factor: −0.43
